Measurements: US4937239A, “Azabicycloalkane oxime & azabicycloalkene oxime muscarinic agents” (Warner-Lambert Company, priority 1989, dated 1990)

Key:
[1] = molecular target: central muscarinic binding site; assay: RQNB screening assay: inhibition of radio-labeled quinuclidinyl benzilate (antagonist) binding, rat cerebral cortex tissue; details: R3 is hydrogen, double bond: No; for IC50: rat cerebral cortex; for % Inhib. RQNB: @ 10^-6 M
Protocol: (§1) The biological activity of compounds of the present invention was evaluated using a number of tests. The activity of compounds of this invention as central muscarinic binding site agonists and antagonists was measured. In the RQNB screening assay, which is described more fully by Mark Watson, et al, J. Pharmocol. Exp. Ther., 237 (2): 411 (1986), rat cerebral cortex tissue was treated with radio-labeled quinuclidinyl benzilate, a known muscarinic binding site antagonist. The % inhibition concentration of test compound required to inhibit 50% of the binding of this muscarinic antagonist was then determined.

[2] = molecular target: central muscarinic binding site; assay: RCMD screening assay: inhibition of radio-labeled cis-methyldioxolane (agonist) binding, rat cerebral cortex tissue; details: R3 is hydrogen, double bond: No; for IC50: rat cerebral cortex; for % Inhib. RCMD: @ 10^-7 M
Protocol: as §1
Similarly, in the RCMD screening assay, described more fully by T. W. Vickeroy, et al, J. Pharmacol. Exp. Ther., 229 (3): 747 (1984), rat cerebral cortex tissue was treated with radio-labeled cis-methyldioxolane,a known muscarinic binding site agonist. The concentrations of test compounds required to inhibit 50% of the binding of this muscarinic agonist were then determined.

laboratory rats = assay: SIS, scopolamine induced swimming test; type: in vivo, rat; details: for reversal of scopolamine-induced swimming hyperactivity: rats given scopolamine
Protocol: In a second screening assay, designated SIS, the scopolamine induced swimming test, the ability of representative compounds of the present invention to reverse the hyperactive swimming behavior of laboratory rats given scopolamine was assessed. In this test, untreated rats will generally swim distances between 20 to 30 meters during a five minute test period. […] The effect of scopolamine is centrally mediated; the ability of a test compound to reverse the hyperactive swimming behavior induced by scopolamine is thus a measure of the central cholinergic activity of the compound.

[3] = in vivo; cited from earlier work
[4] = test system: Aged humans and nonhuman primates; details: aged humans and nonhuman primates with decreased cognition; cited from earlier work
[5] = test system: patients clinically diagnosed as having presenile primary degenerative dementia; details: cited from earlier work

SMILES: C=CCON=CC1CN2CCC1CC2 (stereo not drawn) [R1 = Hydrogen, R2 = Allyl, 1-Azabicyclo[2.2.2]octane-3-carboxaldehyde, O-2-propenyloxime]
- IC50 [1]: 146 nM
- IC50 [2]: 117 nM

SMILES: CN1[C@@H]2C[C@@H](OC(=O)[C@H](CO)c3ccccc3)C[C@H]1[C@@H]1O[C@@H]12 [scopolamine]
- increase of swimming distance above baseline values (laboratory rats; scopolamine 0.1 mg/kg, five minute test period): 75-125%

SMILES: Nc1ccncc1N [3,4-diaminopyridine]
- age-related cognitive deficits [3]: ameliorate age-related cognitive deficits

SMILES: C#CCON=C(C)C1CN2CCC1CC2 (stereo not drawn) [R1 = Methyl, R2 = 2-Propynyl, Ethanone,1-(1-Azabicyclo[2.2.2]oct-3-yl)-, O-2-propynyloxime]
- % Inhib. RQNB [1]: 81%
- % Inhib. RCMD [2]: 78%

SMILES: CNC(=O)Oc1ccc2c(c1)[C@]1(C)CCN(C)[C@@H]1N2C [physostigmine]
- memory [4]: improved memory
- reversal of scopolamine-induced swimming hyperactivity (laboratory rats): can be reversed

SMILES: C#CCON=CC1CN2CCC1CC2 (stereo not drawn) [R1 = Hydrogen, R2 = 2-Propynyl, 1-Azabicyclo[2.2.2]octane-3-carboxaldehyde, O-2-propynyloxime]
- IC50 [1]: 348 nM
- IC50 [2]: 27 nM

SMILES: CON=C(C)C1CN2CCC1CC2 (stereo not drawn) [R1 = Methyl, R2 = Methyl, Ethanone,1-(1-Azabicyclo[2.2.2]oct-3-yl)-, O-methyloxime]
- % Inhib. RQNB [1]: 54%
- % Inhib. RCMD [2]: 90%

SMILES: CON=CC1CN2CCC1CC2 (stereo not drawn) [R1 = Hydrogen, R2 = Methyl, 1-Azabicyclo[2.2.2]octane-3-carboxaldehyde, O-methyloxime]
- ED50 (laboratory rats; Rattus norvegicus, PO, laboratory rats, read-out: ED50 required to demonstrate reversal of the scopolamine-induced hyperactive swimming activity): 1.8 mg/kg
- IC50 [1]: 1360 nM
- IC50 [2]: 11.8 nM

SMILES: COC(=O)C1=CCCN(C)C1 [arecoline, methyl ester of 1,2,5,6-tetrahydro-1-methyl-3-pyridinecarboxylic acid]
- test of picture recognition ([5]; double blind study): Significant improvement
- amelioration of symptoms of cognitive disorders ([5]; patients with presenile primary degenerative dementia): effective in ameliorating some of the symptoms of cognitive disorders
- reversal of scopolamine-induced swimming hyperactivity (laboratory rats): can be reversed
